In the RepoRT retention time repository (doi:10.1021/acs.analchem.2c02893):

Test: RP, Thermo Scientific Acclaim RSLC 120 C18, 100 × 2.1 mm, 2.2 µm, 30 °C, 0.2 mL/min, estimated dead time 1.1 min; A: 90% water + 10% methanol + 0.01% formic acid + 5 mM ammonium formate, pH 3.61; B: methanol + 0.01% formic acid + 5 mM ammonium formate, pH 3.61; gradient (min/%B) 0/1 1/1 2/39 13/99.9 15/99.9 15.1/1 20.1/1
Conditions: stereoisomer not certain

Compound	LC retention time [min]
CN(C)CCC=C1c2ccccc2Sc2ccc(Cl)cc21 [Chlorprotixene]	8.99
CCn1cc(C(=O)O)c(=O)c2cc3c(cc21)OCO3 [Oxolinic acid]	6.03
CCNc1nc(NC(C)CC)nc(OC)n1 (centres undefined) [Secbumeton]	8.79
CC1C=CC=CCCC=CC=CC=CC=CC(OC2OC(C)C(O)C(N)C2O)CC2OC(O)(CC(O)C(O)CCC(O)CC(O)CC(O)CC(=O)OC(C)C(C)C1O)CC(O)C2C(=O)O (centres undefined) [Nystatin]	10.3
COCC(C)N(C(=O)CS(=O)(=O)O)c1c(C)csc1C (centres undefined) [Dimethenamide-ESA]	6.28
CCNc1nc(Cl)nc(NC(C)(C)C)n1 [Terbuthylazine]	9.36
CCC(=O)OC1(C(=O)SCF)C(C)CC2C3CC(F)C4=CC(=O)C=CC4(C)C3(F)C(O)CC21C (centres undefined) [Fluticasone propionate]	10.7
O=C1CN=C(c2ccccc2F)c2cc(Br)ccc2N1 [Flubromazepam]	8.7
CN1CCCC(CC2c3ccccc3Sc3ccccc32)C1 (centres undefined) [Metixene]	8.51
N#Cc1ccc2c(c1)N(CCCN1CCC(O)CC1)c1ccccc1S2 [Periciazine]	7.45
CCCCN(CCCC)SN(C)C(=O)Oc1cccc2c1OC(C)(C)C2 [Carbosulfan]	13.8
O=c1cn[nH][nH]1 [1 2 3-triazole-5-OH (1.2.3)]	5.99
O=C(NC(=O)c1c(F)cccc1F)Nc1ccc(C(F)(F)F)cc1 [Penfluron]	10.9
CCOC(=O)Nc1cccc(OC(=O)Nc2ccccc2)c1 [Medipham-Desmethyl (desmedipham)]	8.57
O=C(NC(=O)c1c(F)cccc1F)Nc1cc(Cl)c(OC(F)(F)C(F)C(F)(F)F)cc1Cl (centres undefined) [Lufenuron]	12.5
CC(C)CNC(=O)N1CCNC1=O [Isocarbamid (Azolamide)]	5.74
CCCOC(=O)NCCCN(C)C [Propamocarb]	3.5
COc1ccc(CCN2CCC(Nc3nc4ccccc4n3Cc3ccc(F)cc3)CC2)cc1 [Astemizole]	8.03
CN1C(=O)CN=C(c2ccccc2F)c2cc([N+](=O)[O-])ccc21 [Flunitrazepam]	7.83
CSc1nnc(C(C)(C)C)c(=O)n1N [Metribuzin]	7.07
CC(C)(C)C(NC(=O)c1nn(CCCCCF)c2ccccc12)C(N)=O (centres undefined) [ADB-PINACA-5F]	9.86

Compound	LC retention time [min]
CCCCCCCC(C)(C)c1ccc(C2CCCC(O)C2)c(O)c1 (centres undefined) [CP 47-497-C8]	13.5
O=C(Nc1ccc([N+](=O)[O-])cc1Cl)c1cc(Cl)ccc1O [Niclosamide]	12.6
CN(C)C=Nc1c(I)cc(I)c(CCC(=O)O)c1I [Iopodic acid]	10.2
OC(c1ccccc1)(c1ccccc1)C1CCNCC1 [Azacyclonol]	6.19
CN1CCN(CCCN2c3ccccc3Sc3ccc(S(=O)(=O)N(C)C)cc32)CC1 [Thioproperazine]	8.15
CC=C1CC(C)C(C)(O)C(=O)OCC2=CCN(C)CCC(OC1=O)C2=O (centres undefined) [Senkirkine]	5.16
COc1ccc2c3c1OC1C(=O)CCC4(O)C(C2)NCCC314 (centres undefined) [Oxycodone-Nor]	3.71
Nc1nc2c(ncn2COCCO)c(=O)[nH]1 [Aciclovir]	2.34
CNC(C)Cc1cccc(F)c1 (centres undefined) [Amphetamine-3-F-Methyl (3-F-methamphetamine)]	4.39
C#CCOS(=O)OC1CCCCC1Oc1ccc(C(C)(C)C)cc1 (centres undefined) [Propargite]	12.8
CC(C)OC(=O)C(C)N(C(=O)c1ccccc1)c1ccc(F)c(Cl)c1 (centres undefined) [Flamprop-isopropyl]	10.8
Nc1ccc(S(=O)(=O)Nc2ncccn2)cc1 [Sulfadiazine]	3.48
CCS(=O)(=O)Cc1ccccc1OC(=O)NC [Ethiofencarb-sulfone]	4.63
CCc1cc2c(s1)N(C)C(=O)CN=C2c1ccccc1Cl [Clotiazepam]	10.2
CCCC(C(=O)OCCN(CC)CC)(c1ccccc1)c1ccccc1 [Proadifen]	9.41
COc1cc(O)c(C(=O)c2ccccc2)cc1S(=O)(=O)O [Benzophenone-4]	6.19
CN(c1nccc(=O)[nH]1)C1CCN(c2nc3ccccc3n2Cc2ccc(F)cc2)CC1 [Mizolastine]	9.14
CCN1CC2(COC)C(O)CC(OC)C34C5CC6(O)C(OC)C(O)C(OC(C)=O)(C5C6OC(=O)c5ccccc5)C(C(OC)C23)C14 (centres undefined) [Aconitine]	7.09
COC(=O)C1=CCCN(C)C1 [Arecoline]	1.74
Cc1c(N(C)CS(=O)(=O)O)c(=O)n(-c2ccccc2)n1C [Dipyron (Metamizol)]	4.49
CC(C)(C)Nc1nc(N)nc(Cl)n1 [Terbuthylazine-desethyl]	7.48

Compound	LC retention time [min]
CCCCCCCCc1ccc(OCCO)cc1 [Octylphenol monoethoxylates (OP1EO)_NH4 adduct]	12.4
Clc1ccc(C(c2ccccc2)N2CCNCC2)cc1 (centres undefined) [Piperazine -1[(4-chlorophenyl) phenyl methyl]]	8.53
Cc1cccc(C)c1N(Cn1cccn1)C(=O)C(=O)O [Metazachlor OA]	5.09
CCC1(c2ccc(N)cc2)CCC(=O)NC1=O (centres undefined) [Aminoglutethimide]	4.99
C=CCN1CCC23c4c5ccc(O)c4OC2C(O)C=CC3C1C5 (centres undefined) [Nalorphine]	3.39
O=Cc1ccccc1Nc1ccccc1Cl [2-(2-(Chlorophenyl)amino)benzaldehyde]	11.4
O=C(O)Cc1c[nH]c2ccccc12 [Indole-3-acetic acid]	5.78
O=c1c(-c2ccc(O)cc2)coc2cc(O)ccc12 [Daidzein]	6.89
C#CCOc1cc(-n2nc(C(C)(C)C)oc2=O)c(Cl)cc1Cl [Oxadiargyl]	11.2
O=C1CN=C(c2ccccc2)c2cc([N+](=O)[O-])ccc2N1 [Nitrazepam]	7.79
CNCC(C)CN1c2ccccc2CCc2ccccc21 (centres undefined) [Trimipramine-Nor]	8.49
COc1ccc(C(=O)c2c(C)n(CCN3CCOCC3)c3ccccc23)cc1 [WIN-48-098]	9.55
CC12C=CC3=C4CCC(=O)C=C4CCC3C1CCC2O (centres undefined) [Trenbolone]	8.89
CCOC(=O)CC(SP(=S)(OC)OC)C(=O)OCC (centres undefined) [Malathion]	9.59
OC(CNCC(O)C1CCc2cc(F)ccc2O1)C1CCc2cc(F)ccc2O1 (centres undefined) [Nebivolol]	8.28
CCOCN(C(=O)CCl)c1c(C)cccc1CC [Acetochlor]	10.2
CCN(CC)C(=O)SCc1ccccc1Cl [Orbencarb]	11.3
CCOc1cc(OP(=S)(OC)OC)nc(CC)n1 [Etrimfos]	11
Cc1ccn2nc(S(=O)(=O)Nc3c(F)cccc3F)nc2n1 [Flumetsulam]	4.83
Cc1nc(NS(=O)(=O)c2ccc(N)cc2)oc1C [Sulfamoxole]	4.11
CCC1OC(=O)CC(O)C(C)C(OC2OC(C)C(O)C(N(C)C)C2O)C(CCN2CC(C)CC(C)C2)CC(C)C(=O)C=CC(C)=CC1COC1OC(C)C(O)C(OC)C1OC (centres undefined) [Tilmicosin]	6.69

Compound	LC retention time [min]
CC(=O)NCCCS(=O)(=O)O [Acamprosat]	1.4
CC(=O)C1(O)CCC2C3CC(C)C4=CC(=O)C=CC4(C)C3(F)C(O)CC21C (centres undefined) [Fluorometholone]	8.91
C#CCN(C)C(C)Cc1ccccc1 (centres undefined) [Deprenyl / Selegiline]	4.68
CNC(=O)C(C)SCCSP(=O)(OC)OC (centres undefined) [Vamidothion]	5.02
CNCC(c1ccc(O)cc1)C1(O)CCCCC1 [Venlafaxine-D L-N O-Didesmethyl]	4.91
COC(=O)C(C)Oc1ccc(Oc2ccc(Cl)cc2Cl)cc1 (centres undefined) [Diclofop-methyl]	12.3
COc1c(Cl)ccc(Cl)c1C(=O)O [Dicamba]	4.97
COc1ccc(CC(C)N)cc1OC (centres undefined) [DMA (3-4-)]	3.94
COP(=S)(OC)Oc1cc(Cl)c(Br)cc1Cl [Bromophos (Bromophos-methyl)]	12.7
N#CC(CCN1CCC(C(N)=O)(N2CCCCC2)CC1)(c1ccccc1)c1ccccc1 [Piritramide]	8.19
CCOC(=O)C1C(OC(=O)c2ccccc2)CC2CCC1N2C (centres undefined) [Cocaethylene]	5.46
O=C(CCCN1CCC(O)(c2ccc(Br)cc2)CC1)c1ccc(F)cc1 [Bromperidol]	7.12
Cn1cnc2c1c(=O)n(CCCC(=O)O)c(=O)n2C [1-(3-carboxypropyl)-3,7-dimethylxanthine]	4.48
CC(=O)N1CCN(c2ccc(OCC3COC(Cn4ccnc4)(c4ccc(Cl)cc4Cl)O3)cc2)CC1 (centres undefined) [Ketoconazole]	9.4
CCCCCCn1cc(C(=O)c2cccc3ccccc23)cc1-c1ccccc1 [JWH-147]	13.3
CCCN(CCOc1c(Cl)cc(Cl)cc1Cl)C(=O)NC=O	11.2
NC1Cc2ccc(I)cc2C1 (centres undefined) [5-Iodo-2-aminoindane (5-IAI)]	5.87
CN1C2CCC1CC(OC(=O)C(CO)c1ccccc1)C2 (centres undefined) [Atropine]	4.36
CCCOc1nn(C(=O)NS(=O)(=O)c2ccccc2C(=O)OC)c(=O)n1C [Propoxycarbazone]	5.73
Cc1cc(C2CC2)nc(Nc2ccccc2)n1 [Cyprodinil]	11
CON(C)C(=O)Nc1ccc(Cl)c(Cl)c1 [Linuron]	9.3
